From patent US20220281931A1, “CHEMICALLY INDUCIBLE POLYPEPTIDE POLYMERIZATION” (Dana-Farber Cancer Institute, Inc., priority 2019, published 2022)

What was measured:
[1] = biological target: T1, eGFPBCL6^1-275 and V5SIAH1 (Homo sapiens, UniProt P41182); experiment: Immunofluorescence of SIAH1 and BCL6 foci in HEK293T cells; type: cell-based; conditions: HEK293TCas9 cells, 0.5 μM MLN7243 pre-treatment 2 hours, 1 μM BI-3802 1 hour
T1 construct: expressed in transfected cells; host or cells: HEK293TCas9 cells, lentiviral transduction
Method: HEK293TCas9 cells expressing eGFPBCL6^250 and eGFPBCL6^275 constructs were transduced with V5SIAH1^C44S (infection rate >70%). […] The cells were fixed with 4% formaldehyde for 15 min and permeabilized with 0.1% Triton X100 for 30 min. Epitopes were blocked with 10% BSA for 10 min. Anti-V5 antibodies were added and incubated on slides overnight at 4° C. After removal of the primary antibodies and washes, Alexa Fluor 633-conjugated anti-mouse antibodies were added and incubated at room temperature for 45 min. Finally, the slides were stained with DAPI (BD Biosciences, #564907, 1:5,000 in H2O) and mounted with SlowFader™ Diamond Antifade Mountant (Thermo Fisher Scientific, S36963). Cells were imaged with the Leica TCS SP5 confocal microscope.

[2] = system: BCL6 mRNA; experiment: Quantitative PCR of BCL6 mRNA; type: cell-based, human; conditions: SuDHL4Cas9 cells, 1 μM, 1 hour
Method: 1×10^6 SuDHL4Cas99 cells were treated with DMSO or 1 μM BI-3802 for 1 h, collected by centrifugation, washed with PBS, and flash frozen in dry ice. mRNA was isolated using the QIAGEN RNA kit (Qiagen, 74106). For cDNA synthesis, total RNA was reverse transcribed with SuperScript™ VILO™ Master Mix (Invitrogen, 11755050) before qPCR analysis with TaqMan Fast Advanced Master Mix (ThermoFisher Scientific, 4444557) for BCL6 (TaqMan, […], Life Technologies) and GAPDH (TaqMan, Hs02758991_g1). Reactions were run and analyzed on QStudio 6 FLX real-Time PCR System (ThermoFisher Scientific).

[3] = system: lymphoma cells; conditions: cited from earlier work
[4] = biological target: T2, endogenous BCL6 (Homo sapiens, UniProt P41182); experiment: Immunofluorescence of endogenous BCL6 in SuDHL4 cells; type: cell-based; conditions: 1 μM BI-3802, 1 hour
T2 construct: endogenous in cells; host or cells: SuDHL4 / SuDHL4Cas9 cells
Method: In vitro ubiquitination for identification of compatible E2 conjugating enzymes was performed by following the manufacturer's instructions (K-982, Boston Biochem), using Strep II-Avi-BCL6^5-360 and Flag-SIAH1^FL. Time-course in vitro ubiquitination was performed by mixing the substrate (BCL6, 2 μM), E3 (SIAH, 0.5 μM), E1 (UBA1, Boston Biochem, 0.2 μM, E2 (UBE2D1, Boston Biochem, 0.5 μM), and ubiquitin (Boston Biochem, 50 μM), with a reaction buffer (B-71, Boston Biochem) containing BI-3802 or DMSO (normalized to 1% DMSO) in 15 μL volume each. Reactions were initiated by adding 5 μL of Mg-ATP solution (B-20, Boston Biochem), incubated for up to 60 min at 37° C., and analyzed by western blot using Strep tag II Antibody HRP conjugate (71591-3, Sigma) at 1:4,000. 0.8×10^6 cells/mL SuDHL4 cells were treated with DMSO or 0.5 μM E1 Inhibitor (3 h)+1 μM BI-3802 (I h) and 200 μL of the cell suspension was immobilized on a slide using the Cytospin™ 4 Cytocentrifuge (CytoSpin 4, A78300003; 6000 rpm, 6 min). Medium was aspirated and cells were fixed with 4% formaldehyde diluted in warm PBS for 15 min at room temperature. Slides were washed three times for 5 min with PBS, blocked and permeabilized with blocking solution (5% Normal Goat Serum (Cell Signaling), 0.3% Triton X-100 in PBS) for 60 min and stained with anti-BCL6 antibody in blocking solution overnight at 4° C. […]

[5] = biological target: T3, BCL6^5-360 - SIAH1^SBD (Homo sapiens, UniProt P41182); experiment: BCL6-SIAH1 TR-FRET; type: biochemical; conditions: preassembled 0.2 μM BodipyBCL6^5-360 and 0.2 μM BiotinSIAH1^SBD, in vitro; read-out: EC50 for increase of the BCL6-SIAH1 interaction
T3 construct: 200 nM BodipyFL-labeled BCL6^5-360 variants; His6 (N); Spy (C); made in house; host or cells: Trichoplusia ni High Five insect cells, baculovirus
Method: After dispensing the assay mixture (15 μL volume), increasing concentrations of compounds were dispensed in a 384-well microplate (Corning, 4514) using a D300e Digital Dispenser (HP) normalized to 1% DMSO. After excitation of terbium fluorescence at 337 nm, emission at 490 nm (terbium) and 520 nm (BodipyFL) were recorded with a 70 us delay over 600 μs to reduce background fluorescence, and the reaction was followed over 60 cycles of each data point using a PHERAstar FS microplate reader (BMG Labtech). The TR-FRET signal of each data point was extracted by calculating the 520/490 nm ratio. The half-maximal effective concentration (EC50) values were estimated using dose-response analysis standard four parameter log-logistic curves, fitted to the experimental data using […] package. […] After dispensing the assay mixture, increasing concentration of BodipyFL-BCL6^5-360 was added to the SIAH1 mixture in a […] (7.5 μL each, total 15 μL assay volume). The 520/490 nm ratios were measured in as described above and plotted to calculate the KD^APP values using dose-response analysis standard four parameter log-logistic curves using […] package.

[6] = biological target: T4, BCL6 (Homo sapiens, UniProt P41182); experiment: Cellular fractionation and immunoblot of BCL6; type: cell-based; conditions: SuDHL4 cells, 1 μM, 24 hours
T4 construct: endogenous in cells; host or cells: SuDHL4 / SuDHL4Cas9 cells
Method: 1×10^6 SuDHL4Cas9 cells were treated with DMSO or 1 μM BI-3802 for 24 h and fractionated using the CelLytic™NuCLEAR™Extraction Kit (Sigma-Aldrich) according to the manufacturer's protocol, resolved on a polyacrylamide gel, and immunoblotted for the indicated targets.

Compound: CNC(=O)COc1cc2cc(Nc3nc(N4C[C@H](C)C[C@H](C)C4)ncc3Cl)ccc2n(C)c1=O [BI-3802, 2-((6-((5-chloro-2-((3S,5R)-3,5-dimethylpiperidin-1-yl)pyrimidin-4-yl)amino)-1-methyl-2-oxo-1,2-dihydroquinolin-3-yl)oxy)-N-methylacetamide]
- SIAH1 colocalization to BCL6 foci [1]: SIAH1 colocalized to BCL6 foci in a V×P motif dependent manner
- BCL6 mRNA expression [2]: did not alter BCL6 mRNA expression
- activity against lymphoma cells compared to BI-3812 [3]: markedly increased activity against lymphoma cells
- endogenous BCL6 foci formation [4]: endogenous BCL6 also formed foci
- EC50 [5]: 64 nM
- chromatin-bound BCL6 level [6]: efficiently depleted chromatin-bound BCL6
